Results from US20040002493A1, “Benzoic acid derivatives and pharmaceutical agents comprising the same as active ingredient” (priority 2000, published 2004).

How the values were obtained:
Assay in all cases: Binding assay using cell expressing the prostanoid receptor subtypes, [3H]-PGE2 competition on CHO membrane fraction
EP1 receptor = target: T1, EP1 receptor (Mus musculus, UniProt P35375); conditions: mouse EP1, [3H]-PGE2 2.5 nM, pH 6.0
T1 construct: expressed in transfected cells; host or cells: CHO cells
T1 sequence (P35375 1-405): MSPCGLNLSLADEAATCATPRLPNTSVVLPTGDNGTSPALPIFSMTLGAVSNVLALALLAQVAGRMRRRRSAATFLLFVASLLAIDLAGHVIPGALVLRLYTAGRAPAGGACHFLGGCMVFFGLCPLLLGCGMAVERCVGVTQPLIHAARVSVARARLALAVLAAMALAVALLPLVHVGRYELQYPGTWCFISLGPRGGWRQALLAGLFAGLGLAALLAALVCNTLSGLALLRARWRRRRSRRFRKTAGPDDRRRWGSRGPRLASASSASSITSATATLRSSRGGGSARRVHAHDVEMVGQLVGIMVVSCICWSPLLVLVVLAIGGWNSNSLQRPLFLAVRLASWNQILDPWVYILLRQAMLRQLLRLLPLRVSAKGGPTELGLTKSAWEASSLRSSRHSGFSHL
Protocol: (§1) (i) Binding Assay Using Cell Expressing the Prostanoid Receptor Subtypes
(§2) The preparation of membrane fraction was carried out according to the method of Sugimoto et al [J. Biol. Chem. 267, 6463-6466 (1992)], using CHO cell expressing prostanoid receptor subtypes (mouse EP1, EP2, EP3α, and EP4).
(§3) The standard assay mixture containing membrane fraction (50 μL), [^3H]-PGE2 in a final volume of 150 μL was incubated for 1 hour at room temperature. The reaction was terminated by addition of 3 mL of ice-cold buffer. The mixture was rapidly filtered through a glass filter (GF/B) under reduced pressure. The radioactivities associated with the filters were measured by liquid scintillation counter.
(§4) Kd and Bmax values were determined from Scatchard plots [Ann. N.Y. Acad. Sci. 51, 660(1949)]. Non-specific binding was determined as the amount bound in the presence of an excess (2.5 μM) of unlabeled PGE2. In the experiment for competition of specific [^3H]-PGE2 binding assay, [^3H]-PGE2 was added at a concentration of 2.5 nM and a test compound of the present invention was added at various concentrations. The following buffer was used in all reactions.
(§5) Buffer: 10 mM potassium phosphate (pH 6.0), 1 mM EDTA, 10 mM MgCl2, 0.1 M NaCl.
(§6) The inhibition constant (Ki) (μM) of each compound was calculated by the following equation.

EP2 receptor = target: T2, EP2 receptor (Mus musculus, UniProt Q62053); conditions: mouse EP2, [3H]-PGE2 2.5 nM, pH 6.0
T2 construct: expressed in transfected cells; host or cells: CHO cells
Protocol: as §1, §2, §3, §4, §5, §6

EP3 receptor = target: T3, EP3 receptor (Mus musculus, UniProt P30557); conditions: mouse EP3α, [3H]-PGE2 2.5 nM, pH 6.0
T3 construct: expressed in transfected cells; host or cells: CHO cells
T3 sequence (P30557 1-365): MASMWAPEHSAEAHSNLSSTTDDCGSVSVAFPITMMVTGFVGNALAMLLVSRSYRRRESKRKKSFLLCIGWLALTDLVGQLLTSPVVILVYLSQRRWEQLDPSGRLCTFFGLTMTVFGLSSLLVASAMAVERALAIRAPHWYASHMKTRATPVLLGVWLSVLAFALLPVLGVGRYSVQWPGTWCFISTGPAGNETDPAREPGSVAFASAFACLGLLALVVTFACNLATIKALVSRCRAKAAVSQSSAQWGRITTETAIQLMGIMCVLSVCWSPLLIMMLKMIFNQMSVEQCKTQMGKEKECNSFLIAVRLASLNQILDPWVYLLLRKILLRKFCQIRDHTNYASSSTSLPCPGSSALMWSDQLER
Protocol: as §1, §2, §3, §4, §5, §6

EP4 receptor = target: T4, EP4 receptor (Mus musculus, UniProt P32240); conditions: mouse EP4, [3H]-PGE2 2.5 nM, pH 6.0
T4 construct: expressed in transfected cells; host or cells: CHO cells
Protocol: as §1, §2, §3, §4, §5, §6

T4 sequence (P32240 whole entry): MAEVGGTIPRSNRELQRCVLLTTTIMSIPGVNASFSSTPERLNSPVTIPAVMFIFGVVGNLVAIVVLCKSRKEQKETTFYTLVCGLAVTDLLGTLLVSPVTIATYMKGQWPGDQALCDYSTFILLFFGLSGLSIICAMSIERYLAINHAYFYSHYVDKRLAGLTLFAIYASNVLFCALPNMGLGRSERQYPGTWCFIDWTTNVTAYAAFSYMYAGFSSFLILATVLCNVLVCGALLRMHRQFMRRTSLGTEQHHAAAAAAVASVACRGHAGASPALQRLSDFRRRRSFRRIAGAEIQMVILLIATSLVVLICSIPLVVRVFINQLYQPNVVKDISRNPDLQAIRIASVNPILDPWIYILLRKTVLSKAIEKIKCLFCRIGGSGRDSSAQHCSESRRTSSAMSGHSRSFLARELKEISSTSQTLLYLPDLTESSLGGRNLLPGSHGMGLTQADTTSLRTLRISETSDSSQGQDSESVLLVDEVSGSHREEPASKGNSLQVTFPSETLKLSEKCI
T2 sequence (Q62053 whole entry): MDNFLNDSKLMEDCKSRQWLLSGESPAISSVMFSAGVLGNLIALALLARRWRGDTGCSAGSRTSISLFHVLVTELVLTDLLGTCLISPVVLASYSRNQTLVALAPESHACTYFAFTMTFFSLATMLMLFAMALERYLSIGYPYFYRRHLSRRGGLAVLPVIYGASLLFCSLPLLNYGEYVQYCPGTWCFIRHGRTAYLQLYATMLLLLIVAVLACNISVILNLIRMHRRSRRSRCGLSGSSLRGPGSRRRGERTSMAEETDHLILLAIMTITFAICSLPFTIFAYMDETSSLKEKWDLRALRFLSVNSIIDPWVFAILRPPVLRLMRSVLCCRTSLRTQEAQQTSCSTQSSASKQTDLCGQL

Question: For CC(C(=O)Nc1ccccc1Cc1ccccc1C(=O)O)c1ccc(OCc2ccccc2)cc1 (stereo not shown) [2(1), 2-[2-[2-(4-Benzyloxyphenyl)propanoylamino]phenyl]methylbenzoic Acid], which Ki (EP1 receptor) is on record?
Answer: Its Ki is 1500 nM.

Question: And the Ki (EP2 receptor)?
Answer: The Ki was 8000 nM.

Question: And the Ki (EP3 receptor)?
Answer: The Ki was 60 nM.

Question: And the Ki (EP4 receptor)?
Answer: Its Ki is 10 nM.
